Experimental data as given in US9676773B2, “Azaindole derivative” (TAIHO PHARMACEUTICAL CO., LTD., priority 2014, dated 2017).

How the values were obtained:
[1] = molecular target: T1, purified recombinant human JAK1 protein (Homo sapiens, UniProt P23458); assay: Measurement of JAK1 kinase-inhibitory activity; type: biochemical; settings: substrate peptide 1 μM, ATP 75 M (so in the source), 25° C., 120 minutes
T1 construct: purchased Carna Biosciences, Inc
Procedure: 1) Measurement of JAK1 Kinase-Inhibitory Activity
The activity of the compound of the present invention to inhibit the activity of JAK1 kinase was measured.
(§1) Among materials for the measurement of this inhibitory activity, a substrate peptide and a kinase protein were acquired as follows. As such a substrate peptide, a substrate peptide for QSS Assist™ JAK1-MSA assay kit (Carna Biosciences, Inc.) was purchased. As such a kinase protein, a purified recombinant human JAK1 protein (Carna Biosciences, Inc.) was purchased.
The method for measuring the inhibitory activity is as follows. First, the compounds of the present invention were each dissolved in dimethyl sulfoxide (DMSO), and a serial dilution was then prepared by the use of DMSO. Subsequently, a serial dilution solution of the compound (the final concentration of DMSO upon a kinase reaction: 5.0%) or DMSO (final concentration: 5.0%) was mixed with a solution containing the substrate peptide (final concentration: 1 μM), magnesium chloride (final concentration: 5 mM) and ATP (final concentration: 75 µM) in a buffer for kinase reaction (20 mM HEPES (pH 7.5), 2 mM dithiothreitol and 0.01% Triton X-100). Thereafter, a JAK1 protein was further added to the mixed solution, and the obtained mixture was then incubated at 25° C. for 120 minutes to carry out a kinase reaction. To the reaction solution, EDTA was added to a final concentration of 30 mM, so as to terminate the reaction. Finally, with LabChip EZ Reader II (Perkin Elmer Corp.), an unphosphorylated substrate peptide (S) and a phosphorylated peptide (P) were subjected to microchannel capillary electrophoresis, so that the two peptides were separated from each other and were then detected. The amount of a phosphorylation reaction was obtained based on the heights of the peaks of S and P, and the concentration of the compound capable of inhibiting 50% of the phosphorylation reaction was defined as an IC50 value (nM).

[2] = molecular target: T2, purified recombinant human JAK2 protein (Homo sapiens, UniProt O60674); assay: Measurement of JAK2 kinase-inhibitory activity; type: biochemical; settings: FL-Peptide 22 1 μM, ATP 10 μM, 25° C., 80 minutes
T2 construct: purchased Carna Biosciences, Inc
T2 sequence (O60674 whole entry): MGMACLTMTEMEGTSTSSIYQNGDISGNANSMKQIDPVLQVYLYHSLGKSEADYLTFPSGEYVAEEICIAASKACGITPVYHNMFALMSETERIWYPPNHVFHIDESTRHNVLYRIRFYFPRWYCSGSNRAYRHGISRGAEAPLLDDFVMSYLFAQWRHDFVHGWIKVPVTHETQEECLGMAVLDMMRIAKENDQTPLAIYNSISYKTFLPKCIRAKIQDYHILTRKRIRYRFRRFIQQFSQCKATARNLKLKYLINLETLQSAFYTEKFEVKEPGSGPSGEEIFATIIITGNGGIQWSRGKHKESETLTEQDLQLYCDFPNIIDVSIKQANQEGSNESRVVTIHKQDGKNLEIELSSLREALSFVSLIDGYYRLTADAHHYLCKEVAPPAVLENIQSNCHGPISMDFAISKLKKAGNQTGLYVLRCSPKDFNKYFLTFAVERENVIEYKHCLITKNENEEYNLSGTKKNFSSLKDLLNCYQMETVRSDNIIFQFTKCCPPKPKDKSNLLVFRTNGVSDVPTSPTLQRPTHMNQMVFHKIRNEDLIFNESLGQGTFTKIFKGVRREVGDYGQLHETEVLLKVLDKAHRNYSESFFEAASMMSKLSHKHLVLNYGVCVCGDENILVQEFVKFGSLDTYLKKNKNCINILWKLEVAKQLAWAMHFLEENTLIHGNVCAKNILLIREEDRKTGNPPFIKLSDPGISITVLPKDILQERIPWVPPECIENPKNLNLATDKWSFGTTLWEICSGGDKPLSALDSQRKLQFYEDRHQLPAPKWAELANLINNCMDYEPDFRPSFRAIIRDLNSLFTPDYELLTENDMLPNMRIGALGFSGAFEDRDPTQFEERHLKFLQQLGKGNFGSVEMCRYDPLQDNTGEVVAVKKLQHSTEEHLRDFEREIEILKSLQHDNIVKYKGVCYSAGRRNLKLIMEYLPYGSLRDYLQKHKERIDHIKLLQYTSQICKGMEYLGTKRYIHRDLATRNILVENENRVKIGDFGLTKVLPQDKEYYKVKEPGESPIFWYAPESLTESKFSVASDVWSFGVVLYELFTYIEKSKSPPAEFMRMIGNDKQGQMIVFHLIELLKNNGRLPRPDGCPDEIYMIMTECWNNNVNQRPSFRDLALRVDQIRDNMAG
Procedure: 2) Measurement of JAK2 Kinase-Inhibitory Activity
The activity of the compound of the present invention to inhibit the activity of JAK2 kinase was measured.
as §1, with “FL-Peptide 22 (Perkin Elmer Corp.)” for “a substrate peptide for QSS Assist™ JAK1-MSA assay kit (Carna Biosciences, Inc.)”, “JAK2” for “JAK1”
The method for measuring the inhibitory activity is as follows. First, a serial dilution of the compound of the present invention was prepared by the same method as that described in the above section regarding JAK1. This serial dilution solution (the final concentration of DMSO upon a kinase reaction: 5.0%) or DMSO (final concentration: 5.0%) was mixed with a solution containing the substrate peptide (final concentration: 1 μM), magnesium chloride (final concentration: 10 mM) and ATP (final concentration: 10 μM) in a buffer for kinase reaction (15 mM Tris (pH 7.5), 2 mM dithiothreitol and 0.01% Tween 20). Thereafter, a JAK2 protein was further added to the mixed solution, and the obtained mixture was then incubated at 25° C. for 80 minutes to carry out a kinase reaction. To the reaction solution, EDTA was added to a final concentration of 30 mM, so as to terminate the reaction. After termination of the reaction, the measurement and the data analysis were carried out by the same methods as those described in the above section regarding JAK1.

T1 sequence (P23458 whole entry): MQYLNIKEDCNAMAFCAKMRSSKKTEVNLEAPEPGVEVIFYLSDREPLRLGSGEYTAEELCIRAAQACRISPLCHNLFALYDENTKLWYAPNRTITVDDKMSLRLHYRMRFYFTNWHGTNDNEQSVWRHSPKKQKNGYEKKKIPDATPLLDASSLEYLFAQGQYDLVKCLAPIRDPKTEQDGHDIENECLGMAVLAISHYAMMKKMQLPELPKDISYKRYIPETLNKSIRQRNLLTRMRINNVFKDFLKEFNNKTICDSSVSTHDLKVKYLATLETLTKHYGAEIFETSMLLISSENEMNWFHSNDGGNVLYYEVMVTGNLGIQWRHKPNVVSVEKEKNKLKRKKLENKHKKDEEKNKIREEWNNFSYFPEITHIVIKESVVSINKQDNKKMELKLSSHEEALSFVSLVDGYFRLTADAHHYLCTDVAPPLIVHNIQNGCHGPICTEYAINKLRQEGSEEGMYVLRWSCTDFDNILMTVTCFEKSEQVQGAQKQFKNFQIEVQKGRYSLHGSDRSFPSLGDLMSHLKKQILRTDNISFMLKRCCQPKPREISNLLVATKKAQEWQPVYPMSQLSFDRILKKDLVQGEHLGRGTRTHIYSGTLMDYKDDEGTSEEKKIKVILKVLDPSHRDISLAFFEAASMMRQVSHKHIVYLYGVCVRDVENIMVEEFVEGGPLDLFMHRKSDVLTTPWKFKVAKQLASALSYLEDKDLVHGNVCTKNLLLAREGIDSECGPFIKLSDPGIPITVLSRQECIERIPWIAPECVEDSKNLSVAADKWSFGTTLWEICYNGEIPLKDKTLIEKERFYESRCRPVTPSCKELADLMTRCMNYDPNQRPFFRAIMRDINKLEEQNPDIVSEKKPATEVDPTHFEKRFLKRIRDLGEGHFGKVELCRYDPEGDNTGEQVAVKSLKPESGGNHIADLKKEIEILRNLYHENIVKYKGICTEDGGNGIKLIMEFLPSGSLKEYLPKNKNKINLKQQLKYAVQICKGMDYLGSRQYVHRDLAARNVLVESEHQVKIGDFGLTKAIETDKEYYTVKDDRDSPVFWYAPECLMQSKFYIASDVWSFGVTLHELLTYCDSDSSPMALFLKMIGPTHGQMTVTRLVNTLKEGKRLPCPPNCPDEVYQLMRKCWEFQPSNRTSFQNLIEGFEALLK

SMILES | IC50 [1] [nM] | IC50 [2] [nM]
C=CC(=O)NC1CCC=C(c2ccnc3[nH]cc(-c4nn(C)c(=O)o4)c23)C1 (stereo not drawn) [Compound 53, N-(3-(3-(4-Methyl-5-oxo-4,5-dihydro-1,3,4-oxadiazol-2-yl)-1H-pyrrolo[2,3-b]pyridin-4-yl)cyclohex-3-en-1-yl)acrylamide] | 3900 | 990
C=CC(=O)NC1CCC=C(c2ccnc3[nH]cc(-c4nnco4)c23)C1 (stereo not drawn) [Compound 49, N-(3-(3-(1,3,4-Oxadiazol-2-yl)-1H-pyrrolo[2,3-b]pyridin-4-yl)cyclohex-3-en-1-yl)acrylamide] | 3400 | 980
C=CC(=O)NC1CCC=C(c2ccnc3[nH]cc(-c4cc(CO)co4)c23)C1 (stereo not drawn) [Compound 14, N-(3-(3-(4-(Hydroxymethyl)furan-2-yl)-1H-pyrrolo[2,3-b]pyridin-4-yl)cyclohex-3-en-1-yl)acrylamide] | 3200 | 590
C=CC(=O)N[C@H]1CCC=C(c2ccnc3[nH]cc(-c4nnco4)c23)C1 [Compound 55, (S)—N-(3-(3-(1,3,4-Oxadiazol-2-yl)-1H-pyrrolo[2,3-b]pyridin-4-yl)cyclohex-3-en-1-yl)acrylamide] | 1000 | 260
C=CC(=O)NC1CCC=C(c2ccnc3[nH]cc(-c4cnco4)c23)C1 (stereo not drawn) [Compound 48, N-(3-(3-(Oxazol-5-yl)-1H-pyrrolo[2,3-b]pyridin-4-yl)cyclohex-3-en-1-yl)acrylamide] | 2400 | 710
C=CC(=O)NC1CCC=C(c2ccnc3[nH]cc(-c4ccc(F)nc4)c23)C1 (stereo not drawn) [Compound 37, N-(3-(3-(6-Fluoropyridin-3-yl)-1H-pyrrolo[2,3-b]pyridin-4-yl)cyclohex-3-en-1-yl)acrylamide] | 4400 | 2400
Cc1nc(-c2c[nH]c3ncc(-c4ccccc4)cc23)cs1 [Comparative Example 3, 2-Methyl-4-(5-phenyl-1H-pyrrolo[2,3-b]pyridin-3-yl)thiazole, reference compound] | 2900 | 1600
C=CC(=O)NC1CCC=C(c2ccnc3[nH]cc(-c4cn[nH]c4)c23)C1 (stereo not drawn) [Compound 3, N-(3-(3-(1H-Pyrazol-4-yl)-1H-pyrrolo[2,3-b]pyridin-4-yl)cyclohex-3-en-1-yl)acrylamide] | 1900 | 570
C=CC(=O)NC1CCC=C(c2ccnc3[nH]cc(-c4ccc(CO)o4)c23)C1 (stereo not drawn) [Compound 10, N-(3-(3-(5-(Hydroxymethyl)furan-2-yl)-1H-pyrrolo[2,3-b]pyridin-4-yl)cyclohex-3-en-1-yl)acrylamide] | 1900 | 250
C=CC(=O)NC1CCC=C(c2ccnc3[nH]cc(-c4cccnc4OC)c23)C1 (stereo not drawn) [Compound 6, N-(3-(3-(2-Methoxypyridin-3-yl)-1H-pyrrolo[2,3-b]pyridin-4-yl)cyclohex-3-en-1-yl)acrylamide] | 1100 | 600
C=CC(=O)NC1CCC=C(c2ccnc3[nH]cc(-c4nncs4)c23)C1 (stereo not drawn) [Compound 54] | 6900 | 2100
C=CC(=O)NC1CC=C(c2ccnc3[nH]cc(-c4nnco4)c23)C1 (stereo not drawn) [Compound 57, N-(3-(3-(1,3,4-Oxadiazol-2-yl)-1H-pyrrolo[2,3-b]pyridin-4-yl)cyclopent-3-en-1-yl)acrylamide] | 3500 | 880

Further lines, results first:

IC50 [1] [nM] | IC50 [2] [nM] | SMILES
1200 | 450 | C1=C(c2ccnc3[nH]ccc23)CCCC1 [Comparative Example 1, reference compound]
1500 | 430 | C=CC(=O)N[C@H]1CCC=C(c2ccnc3[nH]cc(-c4ccno4)c23)C1 [Compound 59]
780 | 500 | C=CC(=O)NC1CCC=C(c2ccnc3[nH]cc(-c4ccco4)c23)C1 (stereo not drawn) [Compound 12, N-(3-(3-(Furan-2-yl)-1H-pyrrolo[2,3-b]pyridin-4-yl)cyclohex-3-en-1-yl)acrylamide]
2400 | 970 | C=CC(=O)NC1CCC=C(c2ccnc3[nH]cc(C4=CCOC4)c23)C1 (stereo not drawn) [Compound 34, N-(3-(3-(2,5-Dihydrofuran-3-yl)-1H-pyrrolo[2,3-b]pyridin-4-yl)cyclohex-3-en-1-yl)acrylamide]
740 | 450 | C=CC(=O)NC1CCC=C(c2ccnc3[nH]cc(-c4ccccc4)c23)C1 (stereo not drawn) [Compound 1, N-(3-(3-Phenyl-1H-pyrrolo[2,3-b]pyridin-4-yl)cyclohex-3-en-1-yl)acrylamide]
2200 | 540 | C1=C(c2ccnc3[nH]ccc23)CCC1 [Comparative Example 2, 4-(Cyclopent-1-en-1-yl)-1H-pyrrolo[2,3-b]pyridine, reference compound]
